Measured values: ChEMBL document CHEMBL1201862, “PubChem BioAssay data set” (2004)
Blank lines part the entries; values can stand above or below the compound they belong to. Activity calls are given as the source filed them.

What was measured:
Kallikrein-7 = Kallikrein-7 (Homo sapiens, UniProt P49862); assay: Fluorescence Intensity-based biochemical primary high throughput dose response assay to identify activators of kallikrein-7 (K7) zymogen.
[1] = general cell-killing toxicity readout – plate reader, dry powder samples, cytotoxicity control for PAX8 inhibitor project, dose response (AID 743021); assay type: functional, cell-based
Paired box protein Pax-8 = Paired box protein Pax-8 (Homo sapiens, UniProt Q06710); assay: PAX8 transcriptional activity inhibition in RMG-I – RMG-I cells, luciferase, cherry-pick, dose response (AID 687027); assay type: functional, cell-based;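 further: luciferase reporter driven by Pax8 target thyroperoxidase promoter measured by SteadyGlo luminescence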
[2] = OVCAR8 cell viability loss – plate reader, dry powder samples, PAX8 project, dose response (AID 743197); assay type: functional, cell-based; settings: OVCAR-8
[3] = A2780 cell killing – plate reader, dry powder samples, cytotoxicity control, dose response (AID 743046); assay type: functional, cell-based
[4] = growth inhibition of PfATP4-mutant resistant parasites – NITD609-resistant line, SYBR Green, dry powder, dose response (AID 1159571); assay type: functional, cell-based;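 further: parasites synchronized at ring stage by sorbitol before testing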
[5] = P. falciparum Dd2 growth inhibitors, dose response, SYBR Green, cherry-picked samples (AID 1159567); assay type: functional, cell-based
[6] = Dd2 malaria parasite growth inhibition potency – SYBR Green, dry powder samples, dose response (AID 1159566); assay type: functional, cell-based;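 further: potency for growth inhibition with lower SYBR green DNA signal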
[7] = growth inhibition of yeast DHODH-expressing 3D7 parasites – SYBR Green, dry powder samples, dose response (AID 1159570); assay type: functional, cell-based;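 further: parasite growth measured after 72 hours of compound exposure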
[8] = toxicity to human HepG2 hepatoma cells – cell-based, plate reader, dry powder samples, cytotoxicity control, dose response (AID 1159569); assay type: functional;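 further: inhibitor potency with signal falling toward the positive control level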

Chain of Kallikrein-7 (P49862 whole entry): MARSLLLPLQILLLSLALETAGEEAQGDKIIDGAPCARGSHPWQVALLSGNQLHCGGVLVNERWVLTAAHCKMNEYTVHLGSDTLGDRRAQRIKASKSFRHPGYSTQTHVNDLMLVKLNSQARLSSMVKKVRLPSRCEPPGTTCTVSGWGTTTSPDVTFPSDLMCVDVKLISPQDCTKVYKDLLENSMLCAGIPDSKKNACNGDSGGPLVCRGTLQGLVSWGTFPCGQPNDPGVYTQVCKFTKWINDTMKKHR
Chain of Paired box protein Pax-8 (Q06710 whole entry): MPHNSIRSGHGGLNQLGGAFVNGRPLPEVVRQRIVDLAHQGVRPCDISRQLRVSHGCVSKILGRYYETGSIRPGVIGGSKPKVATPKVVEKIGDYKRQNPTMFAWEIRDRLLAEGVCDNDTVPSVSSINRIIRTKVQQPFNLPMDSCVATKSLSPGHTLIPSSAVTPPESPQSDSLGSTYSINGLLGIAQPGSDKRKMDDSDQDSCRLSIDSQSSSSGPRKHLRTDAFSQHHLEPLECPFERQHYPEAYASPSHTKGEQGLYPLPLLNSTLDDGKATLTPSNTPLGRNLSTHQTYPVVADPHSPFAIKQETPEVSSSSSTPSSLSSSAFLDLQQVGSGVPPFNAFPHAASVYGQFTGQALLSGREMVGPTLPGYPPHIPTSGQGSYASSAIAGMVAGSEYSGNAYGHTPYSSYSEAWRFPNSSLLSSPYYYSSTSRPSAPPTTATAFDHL

Compound: CC(=O)Nc1ccc(S(=O)(=O)[N-]c2nc3ccccc3nc2-[n+]2ccc(NC(=O)c3ccccc3)cc2)cc1
EC50 (Kallikrein-7): > 69.5 µM (inactive)

Compound: Oc1nc2ccccc2n1C1CCN(C(c2cccs2)c2nnnn2-c2ccc3c(c2)OCCO3)CC1 (stereo not drawn)
AC50 [1]: 54.2 µM (active)
AC50 (Paired box protein Pax-8): 1.78 µM (active)

Compound: CN1C(=O)c2cc(NC(=O)c3cccc(Cl)c3)ccc2OC[C@@H]2O[C@H](CC(=O)NC3CCCCC3)CC[C@@H]21
AC50 [2]: 51.9 µM (active)
AC50 (Paired box protein Pax-8): 7.9 µM (active)
AC50 [3]: 1.19 µM (active)

Compound: C[C@H](CO)N1C[C@H](C)[C@@H](CN(C)C(=O)c2ccccc2F)Oc2ncc(C#Cc3cccc(F)c3)cc2C1=O
AC50 [4]: 2.1 µM (active)
AC50 [5]: 1.97 µM (active)
AC50 [6]: 1.63 µM (active)
AC50 [7]: 3.17 µM (active)
AC50 [8]: 39.9 µM (active)

Second part, the compound after the results:

EC50 (Kallikrein-7): 10.6 µM (inactive)
Compound: CCOC(=O)N1CCN(C(=O)c2ccc3nc4ccsc4c(=O)n3c2)CC1

EC50 (Kallikrein-7): 38.7 µM (inactive)
Compound: CCOCCCn1/c(=N\C(=O)c2ccco2)c(C(=O)OCC)cc2c(=O)n3cccc(C)c3nc21
